Counter-ions that a name gives are not always drawn. Like-named read-outs stand apart in the source and are kept apart here.
Experiments:
[1] = tested on: Klebsiella Pneumonia No. 52145; assay: In vivo antibacterial activity on experimental Klebsiella Pneumonia infection in mice; settings: subcutaneous, 1, 5 and 24 hours after infection, 10 mice
Protocol: The antibacterial activity has been measured in vivo on an experimental Klebsiella Pneumonia infection.
40 male mice with a medium weight of 21 grams were divided in 4 series of 10 mice. An intraperitoneal infection with 0.5 ml of a Klebsiella Pneumonia No. 52145 culture in nutritive medium diluted to one thousandth with sterile water is conducted. Treatment is performed by a subcutaneous administration of the product of Example 2, (Product A) three times, (1 hour, 5 hours and 24 hours) after infection. The mortality rate at different times as indicated in the table was measured as well as the number of mice surviving after 8 days.

[2] = tested on: Enterobacter aerogenes Co11; assay: In vitro antibacterial activity, dilution method in liquid medium; format: cell-based; settings: Klebsiella aerogenes, 37°, expressed as base, read-out: minimal inhibiting concentration (MIC)
Protocol: (§1) The antibacterial activity has been measured in vitro by the dilution method in liquid medium. A series of tubes is prepared in which is distributed the same quantity of nutritive medium. Increasing quantities of the antibiotic under study are distributed, then each tube is innoculated with a bacterial strain as indicated in the table. After a 18, 24 or 48 hour incubation in a 37° oven, inhibition of the bacterial growth is appraised by transillumination which determines the minimal inhibiting concentration (MIC) of the products expressed as μg/ml of base in the table. In the following table, the product of Example 2 is identified as Product A.

[3] = tested on: Serratia marcesens CoB 35; assay: as above; format: cell-based; settings: 37°, expressed as base, read-out: minimal inhibiting concentration (MIC)
Protocol: as §1

[4] = tested on: Salmonella typhimurium 420; assay: as above; format: cell-based; settings: Salmonella enterica, 37°, expressed as base, read-out: minimal inhibiting concentration (MIC)
Protocol: as §1

[5] = tested on: Salmonella typhimurium 1 374; assay: as above; format: cell-based; settings: Salmonella enterica, 37°, expressed as base, read-out: minimal inhibiting concentration (MIC)
Protocol: as §1

[6] = tested on: Staphylococcus aureus 40 481; assay: as above; format: cell-based; settings: 37°, expressed as base, read-out: minimal inhibiting concentration (MIC)
Protocol: as §1

[7] = tested on: Staphylococcus aureus 38 691; assay: as above; format: cell-based; settings: 37°, expressed as base, read-out: minimal inhibiting concentration (MIC)
Protocol: as §1

[8] = tested on: Streptococcus faecalis 99 F 74; assay: as above; format: cell-based; settings: Enterococcus faecalis, 99F74; 18 H incubation, 37°, expressed as base; read-out: minimal inhibiting concentration (MIC)
Protocol: as §1

[9] = tested on: Staphylococcus aureus 40 821; assay: as above; format: cell-based; settings: 37°, expressed as base, read-out: minimal inhibiting concentration (MIC)
Protocol: as §1

Escherichia coli 156 = assay: as above; format: cell-based; settings: 37°, expressed as base, read-out: minimal inhibiting concentration (MIC)
Protocol: as §1

[10] = tested on: Enterobacter aerogenes Co86; assay: as above; format: cell-based; settings: Klebsiella aerogenes, 37°, expressed as base, read-out: minimal inhibiting concentration (MIC)
Protocol: as §1

Salmonella anatum 23 348 = assay: as above; format: cell-based; settings: Salmonella enterica, 23348, 37°, expressed as base, read-out: minimal inhibiting concentration (MIC)
Protocol: as §1

Escherichia coli 9 965 = assay: as above; format: cell-based; settings: 37°, expressed as base, read-out: minimal inhibiting concentration (MIC)
Protocol: as §1

[11] = tested on: Staphylococcus aureus 40 511; assay: as above; format: cell-based; settings: 37°, expressed as base, read-out: minimal inhibiting concentration (MIC)
Protocol: as §1

Escherichia coli 9 911 = assay: as above; format: cell-based; settings: 37°, expressed as base, read-out: minimal inhibiting concentration (MIC)
Protocol: as §1

[12] = total dose 0,03 mg (as free base)

With `CNC1CC(C)OC(OC2C(N)CC(N)C(OC3OC(CN)C(O)CC3N)C2O)C1O` [Product A, 4-0-[2',6'-diamino 2', 3', 6'-tridesoxy α, D-ribohexopyranosyl] 6-0-[3"-methylamino 3",4",6"-tridesoxy α, D-xylohexopyranosyl] 2-desoxy streptamine sulfate] the “Mortality at 5 H” value [1, 12] was 1, the “Survived to the eighth day (number of mice)” value (“Survived to the eighth day” for short) [1, 12] was 9 mice and the “Survived to the eighth day” value ([1]; total dose 0,05 mg (as free base)) was 10 mice. The “Survived to the eighth day” value ([1]; total dose 0,075 mg (as free base)) was 10 mice, the MIC ([2]; 18 H incubation) was 0.4 mg/L and the MIC ([2]; 24 H incubation) was 0.4 mg/L. It also gave an MIC ([2]; 48 H incubation) of 1 mg/L, an MIC ([3]; COB35, 18 H incubation) of 10 mg/L and an MIC ([3]; COB35, 24 H incubation) of 40 mg/L. The MIC ([3]; COB35, 48 H incubation) was 40 mg/L, the MIC ([4]; 18 H incubation) was 2 mg/L and the MIC ([4]; 24 H incubation) was 5 mg/L. For the same compound, the MIC ([4]; 48 H incubation) was 20 mg/L, the MIC ([5]; 18 H incubation) was 1 mg/L and the MIC ([5]; 24 H incubation) was 5 mg/L. The MIC ([5]; 48 H incubation) was 10 mg/L, the MIC ([6]; 40481, 18 H incubation) was 0.1 mg/L and the MIC ([6]; 40481, 24 H incubation) was 0.1 mg/L. It also gave an MIC ([6]; 40481, 48 H incubation) of 0.2 mg/L, an MIC ([7]; 38691, 24 H incubation) of 0.1 mg/L and an MIC ([7]; 38691, 48 H incubation) of 0.1 mg/L. For the same compound, the MIC [8] was over 20 mg/L, the MIC ([9]; 40821, 18 H incubation) was 0.1 mg/L and the MIC ([9]; 40821, 24 H incubation) was 0.1 mg/L. The MIC ([9]; 40821, 48 H incubation) was 0.1 mg/L, the MIC (Escherichia coli 156; 18 H incubation) was 0.4 mg/L and the MIC (Escherichia coli 156; 24 H incubation) was 0.6 mg/L. The MIC (Escherichia coli 156; 48 H incubation) was 1 mg/L, the MIC ([10]; 18 H incubation) was 0.6 mg/L and the MIC ([10]; 24 H incubation) was 0.6 mg/L. It also gave an MIC ([10]; 48 H incubation) of 0.6 mg/L, an MIC (Salmonella anatum 23 348; 18 H incubation) of 1 mg/L and an MIC (Salmonella anatum 23 348; 24 H incubation) of 3 mg/L. For the same compound, the MIC (Salmonella anatum 23 348; 48 H incubation) was 15 mg/L, the MIC (Escherichia coli 9 965; 9965, 18 H incubation) was 0.6 mg/L and the MIC (Escherichia coli 9 965; 9965, 24 H incubation) was 1 mg/L. It also gave an MIC (Escherichia coli 9 965; 9965, 48 H incubation) of 2 mg/L, an MIC ([11]; 40511, 18 H incubation) of 0.2 mg/L and an MIC ([11]; 40511, 24 H incubation) of 0.6 mg/L. For the same compound, the MIC ([11]; 40511, 48 H incubation) was 1 mg/L, the MIC (Escherichia coli 9 911; 9911, 18 H incubation) was 0.6 mg/L and the MIC (Escherichia coli 9 911; 9911, 24 H incubation) was 0.6 mg/L. It also gave an MIC (Escherichia coli 9 911; 9911, 48 H incubation) of 0.2 mg/L.

From patent US4031210A, “Antibiotic aminoglycosides, processes of preparation and pharmaceutical compositions” (Roussel-UCLAF, priority 1974, dated 1977)
